{
  "source": "patent US10131652B2",
  "about": "“Pyrimidinyloxy benzene derivatives as herbicides” (E. I. DU PONT DE NEMOURS AND COMPANY, priority 2014, dated 2018)",
  "test_in_all_cases": "Test F pre-/postemergence plant response",
  "assay_type_in_all_cases": "in vivo",
  "key": {"soybean (Glycine max)": {"test_system": "soybean (Glycine max)", "conditions": "Glycine max, scale 0 to 100, read-out: Plant response rating, Soybean", "description": "(§1) Seeds of plant species selected from corn (Zea mays), soybean (Glycine max), velvetleaf (Abutilon theophrasti), lambsquarters (Chenopodium album), wild poinsettia (Euphorbia heterophylla), palmer pigweed (Amaranthus palmeri), waterhemp (common waterhemp, Amaranthus rudis), surinam grass (Brachiaria decumbens), large (Lg) crabgrass (Digitaria sanguinalis), Brazilian crabgrass (Digitaria horizontalis), fall panicum (Panicum dichotomiflorum), giant foxtail (Setaria faberii), green foxtail (Setaria viridis), goosegrass (Eleusine indica), johnsongrass (Sorghum halepense), ragweed (common ragweed, Ambrosia elatior), barnyardgrass (Echinochloa crus-galli), sandbur (southern sandbur, Cenchrus echinatus), arrowleaf sida (Sida rhombifolia), Italian ryegrass (Lolium multiflorum), dayflower (Virginia (VA) dayflower, Commelina virginica), field bindweed (Convolvulus arvensis), cocklebur (common cocklebur, Xanthium strumarium), momingglory (Ipomoea coccinea), nightshade (eastern black nightshade, Solanum ptycanthum), kochia (Kochia scoparia), yellow nutsedge (Cyperus esculentus), and hairy beggarticks (Bidens pilosa), were planted into a silt loam soil and treated preemergence with test chemicals formulated in a non-phytotoxic solvent mixture which included a surfactant.\n(§2) At the same time, plants from these crop and weed species and also waterhemp_RES1, (ALS & Triazine resistant common waterhemp, Amaranthus rudis), and waterhemp_RES2, (ALS & HPPD resistant common waterhemp, Amaranthus rudis) were treated with postemergence applications of test chemicals formulated in the same manner. Plants ranged in height from 2 to 18 cm for postemergence treatments (1- to 4-leaf stage).\n(§3) Treated plants and controls were maintained in a greenhouse for 14 to 21 days, after which time all species were compared to controls and visually evaluated. Plant response ratings, summarized in Table F, are based on a scale of 0 to 100 where 0 is no effect and 100 is complete control. A dash (-) response means no test result."}, "[1]": {"test_system": "fall panicum (Panicum dichotomiflorum)", "conditions": "Panicum dichotomiflorum, scale 0 to 100, read-out: Plant response rating, Panicum, Fall", "description": "as §1, §2, §3"}, "[2]": {"test_system": "Italian ryegrass (Lolium multiflorum)", "conditions": "Lolium multiflorum, scale 0 to 100, read-out: Plant response rating, Ryegrass, Italian; for pest or weed control at 31 g/ha: 31 g ai/ha", "description": "as §1, §2, §3"}, "[3]": {"test_system": "hairy beggarticks (Bidens pilosa)", "conditions": "Bidens pilosa, scale 0 to 100, read-out: Plant response rating, Beggarticks", "description": "as §1, §2, §3"}, "kochia (Kochia scoparia)": {"test_system": "kochia (Kochia scoparia)", "conditions": "Bassia scoparia, scale 0 to 100, read-out: Plant response rating, Kochia; for pest or weed control at 31 g/ha: 31 g ai/ha", "description": "as §1, §2, §3"}, "[4]": {"test_system": "wild poinsettia (Euphorbia heterophylla)", "conditions": "Euphorbia heterophylla, scale 0 to 100, read-out: Plant response rating, Poinsettia, Wild", "description": "as §1, §2, §3"}, "[5]": {"test_system": "surinam grass (Brachiaria decumbens)", "conditions": "Urochloa decumbens, pre-emergence, scale 0 to 100, read-out: Plant response rating, Surinam Grass", "description": "as §1, §2, §3"}, "[6]": {"test_system": "field bindweed (Convolvulus arvensis)", "conditions": "Convolvulus arvensis, scale 0 to 100, read-out: Plant response rating, Field Bindweed", "description": "as §1, §2, §3"}, "[7]": {"test_system": "yellow nutsedge (Cyperus esculentus)", "conditions": "Cyperus, pre-emergence, scale 0 to 100, read-out: Plant response rating, Nutsedge, Yellow", "description": "as §1, §2, §3"}, "[8]": {"test_system": "velvetleaf (Abutilon theophrasti)", "conditions": "Abutilon theophrasti, pre-emergence, scale 0 to 100, read-out: Plant response rating, Velvetleaf", "description": "as §1, §2, §3"}, "[9]": {"test_system": "goosegrass (Eleusine indica)", "conditions": "Eleusine indica, pre-emergence, scale 0 to 100, read-out: Plant response rating, Goosegrass", "description": "as §1, §2, §3"}, "[10]": {"test_system": "ragweed (common ragweed, Ambrosia elatior)", "conditions": "Ambrosia artemisiifolia, scale 0 to 100, read-out: Plant response rating, Ragweed", "description": "as §1, §2, §3"}, "[11]": {"test_system": "large (Lg) crabgrass (Digitaria sanguinalis)", "conditions": "Digitaria sanguinalis, pre-emergence, scale 0 to 100, read-out: Plant response rating, Crabgrass, Large", "description": "as §1, §2, §3"}, "corn (Zea mays)": {"test_system": "corn (Zea mays)", "conditions": "Zea mays, scale 0 to 100", "description": "as §1, §2, §3"}, "[12]": {"test_system": "nightshade (eastern black nightshade, Solanum ptycanthum)", "conditions": "Solanum, pre-emergence, scale 0 to 100, read-out: Plant response rating, Nightshade", "description": "as §1, §2, §3"}, "[13]": {"test_system": "Brazilian crabgrass (Digitaria horizontalis)", "conditions": "Digitaria horizontalis, scale 0 to 100, read-out: Plant response rating, Crabgrass, Brazil", "description": "as §1, §2, §3"}, "[14]": {"conditions": "post-emergence, 31 g ai/ha Postemergence"}, "[15]": {"conditions": "post-emergence, 62 g ai/ha Postemergence"}, "[16]": {"conditions": "pre-emergence, 31 g ai/ha Preemergence"}, "[17]": {"conditions": "post-emergence, 62 g ai/ha, Postemergence"}, "[18]": {"conditions": "pre-emergence, 62 g ai/ha Preemergence"}},
  "note": "Where two headings read alike, the source gives them in different places.",
  "data": [
    {"compound": "Fc1cccc(Oc2ncc(Cl)cn2)c1-c1cc(C(F)F)on1", "note": "[Compound 55, 5-chloro-2-[2-[5-(difluoromethyl)-3-isoxazolyl]-3-fluorophenoxy]pyrimidine]", "values": [
      {"measurement": "plant injury at 31 g/ha", "setting": "soybean (Glycine max); [14]", "value": 70, "unit": "%"},
      {"measurement": "plant injury at 62 g/ha", "setting": "soybean (Glycine max); [15]", "value": 95, "unit": "%"},
      {"measurement": "plant injury at 31 g/ha", "setting": "soybean (Glycine max); [16]", "value": 40, "unit": "%"},
      {"measurement": "plant injury at 62 g/ha", "setting": "soybean (Glycine max); pre-emergence, Preemergence", "value": 50, "unit": "%"},
      {"measurement": "pest or weed control at 31 g/ha", "setting": "[1]; [14]", "value": 40, "unit": "%"},
      {"measurement": "pest or weed control at 62 g/ha", "setting": "[1]; [15]", "value": 30, "unit": "%"},
      {"measurement": "pest or weed control at 31 g/ha", "setting": "[1]; [16]", "value": 90, "unit": "%"},
      {"measurement": "pest or weed control at 62 g/ha", "setting": "[1]; pre-emergence, Preemergence", "value": 100, "unit": "%"},
      {"measurement": "pest or weed control at 31 g/ha", "setting": "[2]; post-emergence, Postemergence", "value": 0, "unit": "%"},
      {"measurement": "pest or weed control at 62 g/ha", "setting": "[2]; [17]", "value": 10, "unit": "%"},
      {"measurement": "pest or weed control at 31 g/ha", "setting": "[2]; pre-emergence, Preemergence", "value": 0, "unit": "%"},
      {"measurement": "pest or weed control at 62 g/ha", "setting": "[2]; pre-emergence, Preemergence", "value": 30, "unit": "%"},
      {"measurement": "pest or weed control at 31 g/ha", "setting": "[3]; [14]", "value": 55, "unit": "%"},
      {"measurement": "pest or weed control at 62 g/ha", "setting": "[3]; [15]", "value": 70, "unit": "%"},
      {"measurement": "pest or weed control at 31 g/ha", "setting": "[3]; [16]", "value": 0, "unit": "%"},
      {"measurement": "pest or weed control at 62 g/ha", "setting": "[3]; [18]", "value": 0, "unit": "%"},
      {"measurement": "pest or weed control at 31 g/ha", "setting": "kochia (Kochia scoparia); post-emergence, Postemergence", "value": 95, "unit": "%"},
      {"measurement": "pest or weed control at 62 g/ha", "setting": "kochia (Kochia scoparia); [17]", "value": 98, "unit": "%"},
      {"measurement": "pest or weed control at 31 g/ha", "setting": "kochia (Kochia scoparia); pre-emergence, Preemergence", "value": 100, "unit": "%"},
      {"measurement": "pest or weed control at 62 g/ha", "setting": "kochia (Kochia scoparia); pre-emergence, Preemergence", "value": 100, "unit": "%"},
      {"measurement": "pest or weed control at 31 g/ha", "setting": "[4]; [14]", "value": 35, "unit": "%"},
      {"measurement": "pest or weed control at 62 g/ha", "setting": "[4]; [15]", "value": 45, "unit": "%"},
      {"measurement": "pest or weed control at 31 g/ha", "setting": "[4]; [16]", "value": 0, "unit": "%"},
      {"measurement": "pest or weed control at 62 g/ha", "setting": "[4]; pre-emergence, Preemergence", "value": 30, "unit": "%"},
      {"measurement": "pest or weed control at 31 g/ha", "setting": "[5]; 31 g ai/ha Preemergence", "value": 0, "unit": "%"},
      {"measurement": "pest or weed control at 62 g/ha", "setting": "[5]; Preemergence", "value": 10, "unit": "%"},
      {"measurement": "pest or weed control at 31 g/ha", "setting": "[6]; [14]", "value": 25, "unit": "%"},
      {"measurement": "pest or weed control at 62 g/ha", "setting": "[6]; [15]", "value": 70, "unit": "%"},
      {"measurement": "pest or weed control at 31 g/ha", "setting": "[6]; [16]", "value": 0, "unit": "%"},
      {"measurement": "pest or weed control at 62 g/ha", "setting": "[6]; [18]", "value": 10, "unit": "%"},
      {"measurement": "pest or weed control at 31 g/ha", "setting": "[7]; 31 g ai/ha Preemergence", "value": 0, "unit": "%"},
      {"measurement": "pest or weed control at 62 g/ha", "setting": "[7]; Preemergence", "value": 0, "unit": "%"},
      {"measurement": "pest or weed control at 31 g/ha", "setting": "[8]; 31 g ai/ha Preemergence", "value": 100, "unit": "%"},
      {"measurement": "pest or weed control at 62 g/ha", "setting": "[8]; Preemergence", "value": 100, "unit": "%"},
      {"measurement": "pest or weed control at 31 g/ha", "setting": "[9]; 31 g ai/ha Preemergence", "value": 5, "unit": "%"},
      {"measurement": "pest or weed control at 62 g/ha", "setting": "[9]; Preemergence", "value": 50, "unit": "%"},
      {"measurement": "pest or weed control at 31 g/ha", "setting": "[10]; [14]", "value": 55, "unit": "%"},
      {"measurement": "pest or weed control at 62 g/ha", "setting": "[10]; [15]", "value": 55, "unit": "%"},
      {"measurement": "pest or weed control at 31 g/ha", "setting": "[10]; [16]", "value": 40, "unit": "%"},
      {"measurement": "pest or weed control at 62 g/ha", "setting": "[10]; pre-emergence, Preemergence", "value": 50, "unit": "%"},
      {"measurement": "pest or weed control at 31 g/ha", "setting": "[11]; 31 g ai/ha Preemergence", "value": 98, "unit": "%"},
      {"measurement": "pest or weed control at 62 g/ha", "setting": "[11]; 62 g ai/ha Preemergence", "value": 100, "unit": "%"},
      {"measurement": "Corn plant response rating (crop injury, 0 = no effect, 100 = complete kill) at 31 g/ha", "setting": "corn (Zea mays); [14]", "value": 15, "unit": "%"},
      {"measurement": "Corn plant response rating (crop injury, 0 = no effect, 100 = complete kill) at 62 g/ha", "setting": "corn (Zea mays); [15]", "value": 20, "unit": "%"},
      {"measurement": "Corn plant response rating (crop injury, 0 = no effect, 100 = complete kill) at 31 g/ha", "setting": "corn (Zea mays); [16]", "value": 0, "unit": "%"},
      {"measurement": "Corn plant response rating (crop injury, 0 = no effect, 100 = complete kill) at 62 g/ha", "setting": "corn (Zea mays); [18]", "value": 40, "unit": "%"},
      {"measurement": "pest or weed control at 31 g/ha", "setting": "[12]; 31 g ai/ha Preemergence", "value": 98, "unit": "%"},
      {"measurement": "pest or weed control at 62 g/ha", "setting": "[12]; Preemergence", "value": 98, "unit": "%"},
      {"measurement": "pest or weed control at 31 g/ha", "setting": "[13]; [14]", "value": 40, "unit": "%"},
      {"measurement": "pest or weed control at 62 g/ha", "setting": "[13]; [15]", "value": 30, "unit": "%"},
      {"measurement": "pest or weed control at 31 g/ha", "setting": "[13]; [16]", "value": 75, "unit": "%"},
      {"measurement": "pest or weed control at 62 g/ha", "setting": "[13]; [18]", "value": 100, "unit": "%"}
    ]}
  ]
}
